Data reported in patent US9050298B2, “Method of treating ischemia/reperfusion injuries to a heart with netrin-1” (The Regents of the University of California, priority 2010, dated 2015).
“Also recorded” adds a separate entry of the source.

Assays:
[1] = system: Bovine aortic endothelial cells (BAEC); assay: DCC expression in NO donor-treated BAECs; format: cell-based; conditions: NO donor 1 mmol/L, 2 hr
isolated cardiomyocytes = assay: DCC expression in NO donor-treated isolated cardiomyocytes; format: cell-based, mouse; conditions: NO donor 1 mmol/L, 2 hr
Protocol: NaCl 130, KCl 5.4, MgSO4 1, NaH2PO4 0.6, D-Glucose 10, HEPES 10, which was continuously bubbled with 95% O2+5% CO2. The enzymatic digestion was commenced by adding collagenase type II (Worthington Biochemical Corp., Lakewood, N.J., 0.56 mg/ml each) to the perfusion buffer and continued for 20 min. The heart was cut down and placed in the Petri dish with perfusion solution. The digested ventricular tissues were cut into 2-3 mm pieces and gently aspirated with a transfer pipette to facilitate cell dissociation. The myocytes were allowed to sediment by gravity for 8-10 min in the 15-ml Falcon tubes.

[2] = system: infarct size post I/R insult; conditions: nitrite supplementation; cited from earlier work
cardiac NO production = assay: ESR detection of nitric oxide in Langendorff perfused heart homogenates; design: species or system mouse; conditions: agent prior to netrin-1, I/R; vs. untreated I/R controls
Protocol: Langendorff perfusion: The mice were anesthetized with intraperitoneal pentobarbitone (60 mg/kg). Hearts were harvested and rapidly transferred into ice-cold Krebs-Henseleit buffer (KHB). […] NaCl118.0, KCl 4.7, CaCl2 2.5, MgSO4 1.2, KH2PO4 1.2, NaHCO3 25.0, D-Glucose 10 at constant pressure (80±1 mmHg) using a peristaltic pump and feedback system. For no I/R setting, hearts were perfused with KHB or netrin-1 for 120 min. […] These experimental protocols are illustrated in FIG. 7. Electron spin resonance detection of nitric oxide radical: Bioavailable nitric oxide radical (NO) from cells or tissues was detected using electron spin resonance (ESR) as described. See Nguyen et al. (2006) PNAS USA 103:6530-5; and Youn et al. (2009) Circ. Res 104:50-59, which are herein incorporated by reference. […] Gently collected homogenates or cell suspensions were snap-frozen in liquid nitrogen and loaded into a finger Dewar for analysis with an eScan electron spin resonance (ESR) spectrophotometer (Bruker, Freemont, Calif.) at the following settings: center field, 3410; field sweep, 100 G; microwave frequency, 9.73 GHz; microwave power, 13.26 mW; modulation amplitude, 9.82 G; 512 points resolution and receiver gain, 356.

[3] = system: mouse heart ischemia/reperfusion injury; assay: Langendorff I/R, netrin-1 given post-conditionally at onset of reperfusion, TTC infarct size; conditions: for Infarct size, inhibitor alone: given at reperfusion without netrin-1; for Effect of netrin-1 postconditioning on infarct size, inhibitor co-treatment: inhibitor with netrin-1
Text: FIG. 17 diagrammatically provides the experimental protocols of the isolated C57BL/6J WT, DCC +/+ and +/−mice heart experiments with netrin-1 added post-conditionally. Data included in up to FIG. 16 indicated preventative role of netrin-1 in cardiac I/R injury when netrin-1 was given pre-conditionally ([…]). These new set of experiments are however critical in understanding if netrin-1 exerts cardioprotective effects when delivered as a post-conditioning agent at the onset of reperfusion (i.e. together with PTCA procedure). All hearts were stabilized for 40 min prior to experiments. Control hearts received 20 min of global no-flow ischemia followed by 60 min of reperfusion. Netrin-1 was given at the onset of the reperfusion. The signaling pathway inhibitors were given either alone accordingly or with the netrin-1 treatment. The arrows indicate the time for myocardial infarct sizing with 2,3,5-TTC (TTC) and for protein analysis by Western blot (WB). ▪=global no-flow ischemia.
Langendorff perfused hearts isolated from C57BL/6J wild-type (WT) control mice or DCC +/−mice underwent 20-min of global ischemia followed by 60-min of reperfusion. DCC (deleted in colorectal cancer) is one of the netrin-1 receptors we found to be however specifically involved in netrin-1 preconditioning induced cardioprotection. Netrin-1 was infused postconditionally at the onset of reperfusion at 100 ng/mL concentration with and without U0126, a specific MEK1/2 inhibitor, or 2-Phenyl-4,4,5,5-tetramethylimidazoline-1-oxyl-3-oxide (PTIO), a nitric oxide (NO)-scavenger. Infarct size was determined to evaluate the severity of myocardial injury using TTC staining, and protein kinase activations determined by Western blot analysis.

[4] = system: I/R-induced cardiac apoptosis; assay: TUNEL apoptosis detection in post-I/R heart sections; design: species or system mouse; conditions: agent + netrin-1, I/R
Protocol: Detection of apoptosis: Apoptosis was detected by the apoptosis detection kit (Chemicon International, Inc., Billerica, Mass.) according to the manufacturer's protocol. At the end of the experimental protocols frozen heart sections (12 μm) were fixed with 1% formalin for 10 min at room temperature (RT) and washed twice in PBS, permeabilized with ethanol/acetic acid (2:1) for 5 min at −20° C., washed twice in PBS, and then incubated for >10 sec with the equilibration buffer. Subsequently, the sections were incubated for 1 hr with DIG-conjugated dUTP and TdT enzymes at 37° C., and then for 10 min in the stop buffer at room temperature (RT), and finally washed three times in PBS. The sections were then incubated with FITC-conjugated anti-DIG antibody for 30 min at RT, and washed three times in PBS. Cover-slipped sections were mounted with medium containing 0.5 μg/ml of propidium iodide. […] TUNEL assay was performed to determine whether netrin-1 inhibits apoptotic cell death induced by I/R. Left ventricular sections were incubated with FITC-conjugated anti-DIG antibody and coverslipped with the mounting medium containing 0.5 μg/ml of Propidium Iodide (PI).

DCC/ERK1/2/eNOS pathway = assay: Western blot / RT-PCR of DCC, ERK1/2, eNOS signalling in perfused hearts; design: species or system mouse; conditions: agent + netrin-1, I/R
Protocol: RT-PCR and Western blot: Total RNA was extracted from mouse hearts using TRIzol (Invitrogen, Carlsbad, Calif.) according to the manufacturer's instructions. Reverse transcription was performed in standard fashion with iScript cDNA Synthesis Kit (Bio-Rad, Hercules, Calif.). PCR was performed using the following primer pairs: PCRs were carried out on an iCycler (Bio-Rad, Hercules, Calif.) including primers generated for GAPDH, ((95° C./2 min), (95° C./25 sec, 57° C./5 sec, 68° C. 5 min)×35, (72° C./10 min)). Western blot analysis was performed as previously published. See Youn et al. (2009) Circ. Res 104:50-59, which is herein incorporated by reference. For no I/R setting, hearts were perfused with KHB or netrin-1 for 120 min. […] These experimental protocols are illustrated in FIG. 7.

[5] = system: mouse heart ischemia/reperfusion injury; assay: Langendorff perfused mouse heart, global ischemia/reperfusion, infarct size by TTC (netrin-1 pre-perfusion); conditions: agent 30 min prior to netrin-1 (100 ng/ml, 45 min), then I/R
Protocol: Langendorff perfusion: The mice were anesthetized with intraperitoneal pentobarbitone (60 mg/kg). Hearts were harvested and rapidly transferred into ice-cold Krebs-Henseleit buffer (KHB). […] NaCl118.0, KCl 4.7, CaCl2 2.5, MgSO4 1.2, KH2PO4 1.2, NaHCO3 25.0, D-Glucose 10 at constant pressure (80±1 mmHg) using a peristaltic pump and feedback system. For no I/R setting, hearts were perfused with KHB or netrin-1 for 120 min. […] These experimental protocols are illustrated in FIG. 7. Infarct size analysis: […] The heart slices were then digitally photographed for planimetry using NIH Image 1.62. Infarct size is expressed as an infarct-to-risk zone ratio (the risk zone is the whole ventricular volume in this global ischemic model).

[6] = system: mouse heart ischemia/reperfusion injury; assay: Langendorff I/R, TTC infarct size, NOX4 siRNA or sepiapterin; conditions: TTC staining
heart mitochondria = assay: Mitochondrial swelling assay on mitochondria from perfused hearts; design: species or system mouse; conditions: isolated mitochondria, absorbance 540 nm
Protocol: Mitochondria isolation: Heart tissue was rinsed twice in ice cold PBS immediately after the end of the Langendorff experiment. The tissue was then homogenized in a pre-chilled glass homogenizer using isolation buffer I (sucrose 250 mM, EGTA 1 mM, HEPES10 mM, and Tris-HCl 10 mM, pH 7.4, 1 ml buffer/0.1 g tissue) on ice. The homogenate was then centrifuged at 800 g for 7 min at 4 C. The supernatant was then transferred to a new tube and centrifuged at 4000 g for 15 min at 4° C. The pellet was rinsed using 1 ml of isolation buffer II (sucrose 250 mM, HEPES 10 mM, Tris-HCl 10 mM, pH 7.4), then centrifuged again at 4000 g for 15 min at 4° C. Further purification was performed by resuspending the pellet with 3 ml of a 19% percoll solution, then layering this on top of a double layer of 30% and 60% percoll solution in a centrifugation tube. The entire tube was spun for 60 min at 1,000 g. The mitochondria layer in the tube was carefully removed. Percoll was washed from the sample by alternating centrifugation and resuspension with isolation buffer II. The final pellet was resuspended in isolation buffer II.
Mitochondrial swelling assay: 30 μg of freshly isolated mitochondria were mixed in a buffer containing 250 mM sucrose and 10 mM Tris (pH 7.4). The mixture was then incubated with 5 mM succinate for 1 minute at room temperature, then with 250 μM of CaCl2. Absorbance at 540 nm was measured immediately for 20 min at 1 minute intervals. Swelling was measured as a decrease in absorbance over time.

NOS = assay: L-NAME sensitive superoxide production (NOS coupling state); design: species or system mouse; conditions: superoxide with and without L-NAME, I/R hearts
Protocol: Superoxide measurements with electron spin resonance (ESR): Superoxide production was measured from heart homogenates using ESR as previously described. Briefly, heart homogenate (10 μg) was mixed in a spin trap solution (CMH, 0.5 mmol/L), loaded into a glass capillary (Fisher Scientific) in the presence or absence of L-NAME (100 μmol/L), and assayed for superoxide using a Bio-Spin ESR spectorphotometer (Bruker) at the following settings: center field 3476; […]; frequency 9.75 GHz; microwave power 21.02 mW; modulation amplitude 2.47 G; 512 points resolution; receiver gain 1000. Netrin-1 attenuates I/R induced NOS uncoupling: To assess the coupling state of NOS under I/R and netrin-1-infused I/R conditions, superoxide production was measured with and without the addition of L-NAME, a general inhibitor of NOS. Under normal conditions when NOS is coupled, it produces nitric oxide (NO). Therefore, the addition of L-NAME will reduce the level of NO, resulting in an increase in measured superoxide production. On the other hand, if NOS is uncoupled and is producing superoxide, the addition of L-NAME will reduce measured superoxide. […] Using this method, the coupling state of whole heart homogenate from each condition was measured (n=5 each condition), with the results shown in FIG. 13.

[7] = system: cardiac superoxide production; assay: Superoxide measurement with ESR in heart homogenates after Langendorff I/R; design: species or system mouse; conditions: siRNA by tail vein, 2 injections
Protocol: Langendorff perfusion: Animals were initially anesthetized with isoflurane. Hearts from the animals were rapidly removed and transferred to ice cold modified Krebs-Henseleit buffer (KHB), consisting of (in mmol/L): NaCl118.0, KCl 4.7, CaCl2 2.5, MgSO4 1.2, Kh2PO4 1.2, NaHCO3 25.0, Glucose 10, pH 7.35. […] While under perfusion, the heart is kept in a 37° C. chamber. For no I/R, hearts were perfused with KHB for 120 min. […] These treatment protocols are illustrated in FIG. 11A. […] At the end of the Langendorff experiment, hearts were removed from the perfusion apparatus and immediately transferred onto ice awaiting homogenization. […] For Western blot analysis, the supernatant from the homogenate centrifuged at 13,000 rpm for 15 min at 4° C. was used. Superoxide measurements with electron spin resonance (ESR): Superoxide production was measured from heart homogenates using ESR as previously described. Briefly, heart homogenate (10 μg) was mixed in a spin trap solution (CMH, 0.5 mmol/L), loaded into a glass capillary (Fisher Scientific) in the presence or absence of L-NAME (100 μmol/L), and assayed for superoxide using a Bio-Spin ESR spectorphotometer (Bruker) at the following settings: center field 3476; […]; frequency 9.75 GHz; microwave power 21.02 mW; modulation amplitude 2.47 G; 512 points resolution; receiver gain 1000.

NOX4 = assay: Western blot of NOX isoforms from whole heart homogenate; design: species or system mouse; conditions: NOX4 siRNA in vivo
Text: Preparation of heart tissue for biochemical assays: At the end of the Langendorff experiment, hearts were removed from the perfusion apparatus and immediately transferred onto ice awaiting homogenization. For superoxide measurement and Western blot analysis, hearts were homogenized with ice cold homogenization buffer (Tris 50 mmol/L, EDTA 0.1 mmol/L, EGTA 0.1 mmol/L, protease inhibitor cocktail, pH 7.4) on ice using a glass homogenizer. For Western blot analysis, the supernatant from the homogenate centrifuged at 13,000 rpm for 15 min at 4° C. was used.
Western blot: Western blotting was performed as per standard protocols. Primary antibody for NOX4 (Abcam, Cambridge, Mass.) was used at a dilution of 1:1000. Primary antibody for actin (Sigma-Aldrich, St. Louis, Mo.) was used at a dilution of 1:3000. Secondary antibody conjugated to HRP (Bio-Rad, Hercules, Calif.) was used at a dilution of 1:2000 for NOX4, and 1:10000 for actin.

Compound | Netrin-1 stimulated NO production in hearts pre-perfused with the agent (cardiac NO production) | Infarct size, inhibitor alone [3] | Effect of netrin-1 postconditioning on infarct size, inhibitor co-treatment [3] | Infarct size after I/R [6] | Mitochondrial function (swelling) in I/R hearts (heart mitochondria) | NOS coupling state under I/R (NOS) | further results
CNCCCCCCN(C)/[N+]([O-])=N/O [MAMANOATE] |  |  |  |  |  |  | DCC protein expression in cultured ECs [1]: increased DCC protein expression; DCC protein expression in cardiomyocytes (isolated cardiomyocytes): increased DCC protein expression
O=NO [Nitrite] |  |  |  |  |  |  | reduction in infarct size post I/R insult [2]: 48%
CC1(C)N([O])C(c2ccccc2)=[N+]([O-])C1(C)C [PTIO, 2-phenyl-4,4,5,5-tetramethylimidazoline-1-oxyl 3-oxide] | attenuated | no effect | abolished |  |  |  | 
N#CC(=C(N)Sc1ccccc1N)C(C#N)=C(N)Sc1ccccc1N [U0126, 1,4-diamino-2,3-dicyano-1,4-bis (2-aminophenylthio)butadiene] | 1.12±0.15 fold | no effect | abolished |  |  |  | TUNEL positive cells, agent prior to netrin-1 [4]: 19.24±2.4%; Netrin-1 increase in phosphorylated ERK1/2 and eNOSs1177, agent prior to netrin-1 (DCC/ERK1/2/eNOS pathway): inhibited; Netrin-1 restoration of DCC protein expression, agent prior to netrin-1 (DCC/ERK1/2/eNOS pathway): abolished; AKT phosphorylation after the entire I/R procedure (DCC/ERK1/2/eNOS pathway; data not shown): unaffected; Infarct size / cardioprotection in netrin-1-perfused hearts pre-perfused with the agent [5]: 41.3±4.1%
C[C@H](O)C(=O)C1=Nc2c(nc(N)[nH]c2=O)NC1 [sepiapterin] |  |  |  | effective in reducing infarct size | improving mitochondria function; also recorded: improving mitochondrial function | effective in recoupling NOS; also recorded: recouples NOS | Mitochondrial function (swelling) in I/R hearts (heart mitochondria; listed as Sepiapterin): restored mitochondria function; also recorded: effectively diminished mitochondrial dysfunction
NOX4 siRNA: in vivo grade siRNA against NOX4 (SEQ ID NO:19, 20) delivered with nanoparticle transfection kit (chain 1 CAUGCUGCUGCUGUUGCAUGUUUCA; chain 2 CCCUCUGAUGUAAUGGAACUCCGUA; nanoparticle delivery, further chemistry not given here) |  |  |  | markedly reduced | marked improvement; also recorded: improved | functional NOS; also recorded: restored | superoxide levels in NOX4 siRNA treated hearts compared to controls [7]: increased; NOX4 protein expression in hearts of siRNA treated mice (NOX4): successful silencing
